Measured values reported in US9265253B2, “Use of macrocyclic picolinamides as fungicides” (DOW AGROSCIENCES LLC, priority 2013, dated 2016).
Where two headings read alike, the source gives them in different places.

What was measured:
[1] = system: Mycosphaerella graminicola; Anamorph: Septoria tritici; test: Leaf Blotch of Wheat (SEPTTR) disease control; assay type: in vivo; settings: Zymoseptoria tritici
Procedure: (§1) Technical grades of materials were dissolved in acetone, which were then mixed with nine volumes of water containing 110 ppm Triton X-100. The fungicide solutions were applied onto wheat seedlings using an automated booth sprayer to run-off. All sprayed plants were allowed to air dry prior to further handling. All fungicides were evaluated using the aforementioned method for their activity vs. all target diseases. Wheat leaf blotch and brown rust activity were also evaluated using track spray applications, in which case the fungicides were formulated as EC formulations, containing 0.1% Trycol 5941 in the spray solutions. Wheat plants (variety Yuma) were grown from seed in a greenhouse in 50% mineral soil/50% soil-less Metro mix until the first leaf was fully emerged, with 7-10 seedlings per pot. These plants were inoculated with an aqueous spore suspension of Septoria tritici either prior to or after fungicide treatments. After inoculation the plants were kept in 100% relative humidity (one day in a dark dew chamber followed by two to three days in a lighted dew chamber at 20° C.) to permit spores to germinate and infect the leaf. The plants were then transferred to a greenhouse set at 20° C. for disease to develop. When disease symptoms were fully expressed on the 1st leaves of untreated plants, infection levels were assessed on a scale of 0 to 100 percent disease severity. Percent disease control was calculated using the ratio of disease severity on treated plants relative to untreated plants.

[2] = system: Puccinia triticina; Synonym: Puccinia recondite f. Sp. Tritici; test: Wheat Brown Rust (PUCCRT) disease control; assay type: in vivo; settings: Puccinia triticina, topical
Procedure: as §1, with “plants. Wheat plants (variety Yuma) were grown from seed in a greenhouse in 50% mineral soil/50% soil-less Metro mix until the first leaf was fully emerged, with 7-10 seedlings per pot. These plants were inoculated with an aqueous spore suspension of Puccinia triticina either prior to or after fungicide treatments. After inoculation the plants were kept in a dark dew room at 22° C. with 100% relative humidity overnight to permit spores to germinate and infect the leaf. The plants were then transferred to a greenhouse set at 24° C. for disease to develop. Fungicide formulation, application and disease assessment followed the procedures as described in the Example A.” for “plants.”

[3] = 24 h, 1 Day Protectant, rate 100 ppm, read-out: SEPTTR 1 DP disease control
[4] = 72 h, 3 Day Curative, rate 100 ppm, read-out: SEPTTR 3 DC disease control
[5] = 24 h, 1 Day Protectant, rate 100 ppm, read-out: PUCCRT 1 DP disease control
[6] = 72 h, 3 Day Curative, rate 100 ppm, read-out: PUCCRT 3 DC disease control
[7] = 24 h, 1 Day Protectant, rate 121.5 g/H, read-out: SEPTTR 1 DP disease control
[8] = 72 h, 3 Day Curative, rate 121.5 g/H, read-out: SEPTTR 3 DC disease control
[9] = 24 h, 1 Day Protectant, rate 121.5 g/H, read-out: PUCCRT 1 DP disease control
[10] = 72 h, 3 Day Curative, rate 121.5 g/H, read-out: PUCCRT 3 DC disease control

SMILES | pest or weed control at 100 ppm [1, 3] | pest or weed control at 100 ppm [1, 4] | pest or weed control at 100 ppm [2, 5] | pest or weed control at 100 ppm [2, 6] | pest or weed control at 121.5 g/ha [1, 7] | pest or weed control at 121.5 g/ha [2, 9] | pest or weed control at 121.5 g/ha [2, 10] | also measured
COc1ccc(C[C@H]2CCC[C@H](NC(=O)c3nccc(OC)c3O)C(=O)O[C@@H](C)[C@@H]2OCC2CC2)cc1 [Compound F30] | 80 to 100% | 80 to 100% | 80 to 100% | 80 to 100% |  |  |  | 
COc1ccnc(C(=O)N[C@H]2CCC[C@H](CC3CCCCC3)[C@@H](OCC(C)C)[C@H](C)OC2=O)c1O [Compound F25] | 80 to 100% | 0 to 80% | 80 to 100% |  |  |  |  | 
COc1ccnc(C(=O)N[C@H]2CCC[C@H](Cc3ccc(F)cc3F)[C@@H](OCCCc3ccccc3)[C@H](C)OC2=O)c1O [Compound F56] | 80 to 100% | 0 to 80% | 80 to 100% | 0 to 80% |  |  |  | 
COc1ccnc(C(=O)N[C@H]2CCC[C@H](CCOCC3CC3)[C@@H](OCC3CC3)[C@H](C)OC2=O)c1OC(C)=O [Compound F83] | 80 to 100% |  | 80 to 100% | 80 to 100% | 0 to 80% | 80 to 100% | 80 to 100% | pest or weed control at 121.5 g/ha [1, 8]: 0 to 80%
COc1ccnc(C(=O)N[C@H]2CCC[C@@H]3CCO[C@H]3[C@H](C)OC2=O)c1OC(C)=O [Compound F85] |  |  |  |  | 0 to 80% | 80 to 100% | 80 to 100% | 
C=C[C@H]1CCC[C@H](NC(=O)c2nccc(OC)c2O)C(=O)O[C@@H](C)[C@@H]1Oc1ccccc1 [Compound F61] | 80 to 100% |  | 80 to 100% | 0 to 80% |  |  |  | 
CCOCC(=O)OCOc1c(OC)ccnc1C(=O)N[C@H]1CCC[C@H](CCC(C)C)[C@@H](OC)[C@H](C)OC1=O [Compound F163] | 80 to 100% | 80 to 100% | 80 to 100% | 0 to 80% | 80 to 100% | 0 to 80% | 0 to 80% | pest or weed control at 121.5 g/ha [1, 8]: 0 to 80%
COc1ccnc(C(=O)N[C@H]2CCC[C@H](C)[C@@H](OCc3ccccc3)[C@H](C)OC2=O)c1O [Compound F39] | 80 to 100% | 0 to 80% | 80 to 100% | 80 to 100% |  |  |  | 
CCOCC(=O)OCOc1c(OC)ccnc1C(=O)N[C@H]1CCC[C@H](Cc2ccc(C)cc2)[C@@H](OCCCC(F)(F)F)[C@H](C)OC1=O [Compound F190, ((4-methoxy-2-(((3S,7R,8R,9S)-9-methyl-7-(4-methylbenzyl)-2-oxo-8-(4,4,4-trifluorobutoxyl)oxonan-3-yl)carbamoyl)pyridin-3-yl)oxy)methyl 2-ethoxyacetate] |  |  |  |  |  |  |  | pest or weed control at 100 ppm ([1]; 24 h, Wheat Leaf Blotch, 1 Day Protectant, rate 100 ppm (high volume application), read-out: Disease control SEPTTR 1 DP): 80 to 100%; pest or weed control at 121.5 g/ha ([1]; 24 h, Wheat Leaf Blotch, 1 Day Protectant, rate 121.5 g/H (low volume application), read-out: Disease control SEPTTR 1 DP): 80 to 100%; pest or weed control at 100 ppm ([1]; 72 h, Wheat Leaf Blotch, 3 Day Curative, rate 100 ppm (high volume application), read-out: Disease control SEPTTR 3 DC): 80 to 100%; pest or weed control at 121.5 g/ha ([1]; 72 h, Wheat Leaf Blotch, 3 Day Curative, rate 121.5 g/H (low volume application), read-out: Disease control SEPTTR 3 DC): 80 to 100%; pest or weed control at 100 ppm ([2]; 24 h, Wheat Brown Rust, 1 Day Protectant, rate 100 ppm (high volume application), read-out: Disease control PUCCRT 1 DP): 80 to 100%; pest or weed control at 121.5 g/ha ([2]; 24 h, Wheat Brown Rust, 1 Day Protectant, rate 121.5 g/H (low volume application), read-out: Disease control PUCCRT 1 DP): 80 to 100%; pest or weed control at 121.5 g/ha ([2]; 72 h, Wheat Brown Rust, 3 Day Curative, rate 121.5 g/H (low volume application), read-out: Disease control PUCCRT 3 DC): 0 to 80%
